Experimental data taken from article PMC9196629, “Synthesis, Characterization and Antitumor Mechanism Investigation of Heterometallic Ru(Ⅱ)-Re(Ⅰ) Complexes” (Frontiers in Chemistry, 2022).

Experiments:
[1] = system: A549 (human lung cancer cells); experiment: MTT cytotoxicity assay; format: cell-based; details: 48 h incubation, mean ± SD
Procedure: (§1) The anticancer activities of RuRe-1 and RuRe-2 against four cancer cell lines: HeLa (human cervical cancer cells), HepG2 (human hepatocellular carcinoma), A549 (human lung cancer cells), A549R (cisplatin-resistant A549) and one normal cell line LO2 (human normal liver cells) were determined by 3-(4,5-dimethylthiazole)-2,5-diphenyltetraazolium bromide (MTT) assay, while the mononuclear complexes Ru-1, Ru-2, Re-1 and cisplatin were selected as controls. […] And the in vitro antiproliferative efficacies of the compounds against HeLa cells were in the following order: RuRe-2 > RuRe-1 > Re-1 > cisplatin > Ru-1 > Ru-2. […] The anticancer activity of the mononuclear rhenium complex Re-1 was between 5.6 μM and 8.0 μM, which contributed the most to the antitumor activities of the heteronuclear Ru(II)-Re(Ⅰ) metal complexes.
(§2) Cell lines and culture conditions. HeLa, HepG2, A549, A549R and LO2 cells were purchased from Nanjing KeyGen Biotech., and cultured in DMEM or RPMI 1640 complete medium at 37 ℃ with 5% CO2 atmosphere.
(§3) In vitro cytotoxicity assay. The anti-tumor activity of mononuclear complexes Ru-1, Ru-2, Re-1 and heteronuclear RuRe-1 and RuRe-2 were determined by MTT (5 mg/mL) assay. Cells were placed in 96-well plates and cultured for 24 h at 37 ℃ in a 5% CO2 incubator. After replacing the culture medium with fresh medium containing RuRe-1 or RuRe-2 at the indicated concentration, cells were cultured for 48 h. 20 μL MTT was added to each well 4 h before the end of the incubation. Subsequently, the liquid in the cell wells was poured out and 150 μL/well DMSO was added to dissolve the MTT-formazan crystals. The absorbance of living cells at 570 nm was detected.

[2] = system: HeLa (human cervical cancer cells); experiment: MTT cytotoxicity assay; format: cell-based; details: 48 h incubation, mean ± SD
Procedure: as §1, §2, §3

[3] = system: HepG2 (human hepatocellular carcinoma); experiment: MTT cytotoxicity assay; format: cell-based; details: 48 h incubation, mean ± SD
Procedure: as §1, §2, §3

[4] = system: LO2 (human normal liver cells); experiment: MTT cytotoxicity assay; format: cell-based; details: 48 h incubation, mean ± SD
Procedure: as §1, §2, §3

[5] = n-octanol/water partition coefficient by shaking flask method; format: physicochemical
Text: Drugs exert their effects through pharmacokinetic processes such as absorption, distribution, and metabolism, which are closely related to the n-octanol/water partition coefficient of the drug (log P o/w) ([Choi et al., 2012]).

[6] = Stability in PBS by UV-Vis spectroscopy; format: physicochemical; details: 10 μM, PBS, 0, 24 and 48 h
Procedure: The stabilities of RuRe-1 and RuRe-2 in PBS and human serum albumin (HSA) were tested through UV–Vis spectroscopy.
Supplementary Figure 12. UV-Vis absorption spectra of RuRe-1 (10 μM), RuRe-2 (10 μM), Ru-1 (10 μM), Ru-2 (10 μM) and Re-1 (10 μM) in PBS (A) and HSA (B) solution collected at 0, 24, and 48 h, respectively.

caspase-3 = experiment: Western blot of apoptosis-related proteins; format: cell-based, human; details: HeLa, different concentrations, 24 h
Procedure: Cysteine aspartate proteases play an important role in apoptosis, especially caspase-3 protein, which is one of the most important execution factors in the apoptotic pathway ([Wang X. et al., 2021]). The poly(ADP-ribose) polymerase (PARP) is associated with DNA repair and guardianship of genetic integrity ([Pandey and Black, 2021]). After treating HeLa cells with different concentrations of RuRe-1 or RuRe-2 for 24 h, the expression of caspase-3 and the caspase substrate PARP apoptotic protein were detected by western blot. […] It was further shown that RuRe-1 and RuRe-2 are activators of caspase-3, which can trigger apoptosis in HeLa cells.
FIGURE 4 Expression of apoptosis-related protein (caspase-3 and PARP) in HeLa cells treated with RuRe-1 and RuRe-2 for 24 h.
Western blot analysis. HeLa cells were plated into the 6-well plates, after treating with different doses of RuRe-1 and RuRe-2 for 24 h, the cells were collected and lysed. The protein concentration was determined using the BCA assay kit. Equal amounts of protein were ran on SDS-PAGE and then transferred to the PVDF membrane.

HeLa cells [7] = experiment: Intracellular ROS by H2DCFDA staining; format: cell-based, human; details: 6 h, confocal microscopy
Procedure: ROS are natural by-product of normal oxygen metabolism and play an important role in cellular signaling transduction and homeostasis in vivo ([Casas et al., 2020]). It has been shown that the excessive production of ROS may cause oxidative stress and lead to cell death ([Jia et al., 2020]). Herein, cells were treated with RuRe-1 and RuRe-2 for 6 h and then stained with 2′,7′-dichlorodihydrouorescein diacetate (H2DCFDA). H2DCFDA is non-fluorescent and can be oxidized by intracellular ROS to highly fluorescent 2′,7′-dichlorofluorescein (DCF) ([Abdel Hadi et al., 2021]). The intensity of green fluorescence can respond to the accumulation of intracellular ROS.
FIGURE 7 RuRe-1 and RuRe-2 induced the elevation of intracellular ROS levels examined by confocal microscopy with H2DCFDA staining (λ ex = 488 nm, λ em = 530 ± 20 nm). The incubation time of the compounds was 6 h. Scale bar: 20 μm.
Measurement of intracellular ROS. After HeLa cells were adhered to the confocal dishes, the medium was replaced with medium containing the indicated concentrations of RuRe-1 and RuRe-2 for 6 h. Subsequently, the medium was aspirated and cells were washed three times with serum-free DMEM. Then, cells were co-incubated with fluorescent dye H2DCFDA (10 μM) at 37 °C for 10 mins and washed three times with PBS and visualized by a confocal microscope (λex = 488 nm, λem = 530 ± 20 nm).

HeLa cells [8] = experiment: Wound healing assay (cell migration); format: cell-based, human; details: 36 h, control 15%
Procedure: Metastasis is a major obstacle to cancer treatment, which will cause the failure of cancer treatment and the death of patients ([Fouani et al., 2017]). Cell migration is the main feature of metastasis. Herein, the effects of RuRe-1 and RuRe-2 on inhibiting cell migration were studied through wound healing. […] After 36 h cultivated, both RuRe-1 and RuRe-2 inhibited cell migration, and the wound closure rates were 3% and 2%, respectively, which were lower than 15% of the control group (Figure 8B).
FIGURE 8 (A) Wound healing of HeLa cells after treated with RuRe-1 (3.1 μM) and RuRe-2 (2.5 μM) for 0, 24, and 36 h. (B) Quantitative data of wound-healing. Wound closure (%) = [1−(width at indicated time)/(width at 0 h)] × 100%. (C) Inhibition of colony formation by RuRe-1 and RuRe-2. (D) Quantitative data of colony formation assays.
Wound healing assay. When reaching 80%–90% confluence, the cells were crossed with a 200 μL pipette tip, then photographed under an inverted microscope to record the width of the scratch. After the cells recovered for 1 h, the serum-free medium containing the indicated concentrations of RuRe-1 and RuRe-2 were added and incubated for a specific time (24 h, 36 h), meantime, the width of the scratch was recorded.

| Structure (SMILES) | IC50 [1] [µM] | IC50 [2] [µM] | IC50 [3] [µM] | IC50 [4] [µM] | log P o/w [5] | stability in PBS (UV-Vis spectral characteristics and absorption peaks) [6] | cleavage of caspase-3 (western blot) (caspase-3) | intracellular ROS levels (H2DCFDA) (HeLa cells [7]) | wound closure rate (HeLa cells [8]; 3.1 μM) [%] | wound closure rate (HeLa cells [8]; 2.5 μM) [%] |
| --- | --- | --- | --- | --- | --- | --- | --- | --- | --- | --- |
| F[P-](F)(F)(F)(F)F.F[P-](F)(F)(F)(F)F.F[P-](F)(F)(F)(F)F.[C-]#[O+].[C-]#[O+].[C-]#[O+].[Re+].[Ru+2].c1ccc(-c2ccccn2)nc1.c1ccc(-c2ccccn2)nc1.c1ccc(-c2ccnc3c2ccc2c(-c4ccccc4)ccnc23)cc1.c1cnc2c(c1)c1nc(-c3ccncc3)[nH]c1c1cccnc12 [RuRe-1, [Ru(bpy)2LRe(CO)3(DIP)](PF6)3] | 11.8 ± 0.4 | 3.1 ± 0.8 | 10 ± 0.8 | 25.1 ± 0.7 | 0.47 | no significant change | induced the cleavage | increase in intracellular ROS levels in a concentration-dependent manner | 3 |  |
| F[P-](F)(F)(F)(F)F.F[P-](F)(F)(F)(F)F.F[P-](F)(F)(F)(F)F.[C-]#[O+].[C-]#[O+].[C-]#[O+].[Re+].[Ru+2].c1ccc(-c2ccnc3c2ccc2c(-c4ccccc4)ccnc23)cc1.c1cnc2c(c1)c1nc(-c3ccncc3)[nH]c1c1cccnc12.c1cnc2c(c1)ccc1cccnc12.c1cnc2c(c1)ccc1cccnc12 [RuRe-2, [Ru(phen)2LRe(CO)3(DIP)](PF6)3] | 11.2 ± 0.9 | 2.5 ± 1.3 | 12.5 ± 0.9 | 28.1 ± 1.1 | 2.10 | no significant change | induced the cleavage | increase in intracellular ROS levels in a concentration-dependent manner |  | 2 |
